Test results reported in US4376783A, “Acylated guanidines and medicaments containing them” (Compagnie Francaise de Sucerie, priority 1980, dated 1983).
Entries after “also recorded” stand apart in the source; their conditions may differ.

Columns and labels:
[1] = system: isoproterenol-induced cardio-acceleration and hypotension; conditions: statement on the comparison drug; cited from earlier work
[2] = Pharmacological tests: cardiac stimulant effect; assay type: in vivo; conditions: at relatively high doses (of the order of 50 mg)
Description: Pharmacological tests have shown also that:

[3] = system: isoproterenol-induced cardio-acceleration and hypotension; experiment: Beta-blocking and sympathomimetic activity against isoproterenol-induced cardio-acceleration and hypotension in anaesthetised dogs; assay type: in vivo, dog; conditions: for sympathomimetic activity / beta-blocking effect: product perfused i.v. at 25 mcg/kg/min, compared with Pindolol; for sympathomimetic activity: seen on cessation of isoprenaline; for beta-blocking effect: isoproterenol perfusion 0.2 mcg/kg/min; for beta-blocking properties relative to those of Pindolol: % of the beta-blocking properties of Pindolol, 25 mcg/kg/min i.v.
Method: These tests have been carried out on dogs (of both sexes) of weight comprised between 10 and 25 kg. These dogs were anesthetised by an injection of Pentobarbital (0.1 ml/kg of a 6% solution) and Chloralose (80 mg/kg). The blood pressure was recorded by means of a catheter inserted into the tibial artery and connected to a pressure cell, this pressure being recorded on a Beckman dynograph at the same time as an electrocardiogram; the latter enables the heart rhythm and the heart rate to be checked, integrated by a cardiotachometer.
The blood pressure and the electrocardiogram were first followed for five minutes. Then an isoproterenol solution was perfused into a cephalic vein, at the rate of 0.2 mcg/kg/min, namely 1 ml/min. After fiveperfusing for five minutes, the heart reached a tachycardiac level. At this moment, another perfusion was connected (into the cephalic vein of the other paw) of a Pindolol solution or of the product under study. The compounds of the invention was solubilized in 4 ml of DMF. The volume necessary for the perfusion was obtained by completing it with a 25% DMF solution in distilled water. All the products were injected at the rate of 25 mcg/kg/min. The
The extent to which the products were capable of antagonising the cardio-acceleration on the one hand and the hypotension on the other hand was examined.
After 35 minutes of perfusion, the isoprenaline injection was stopped. The Pindolol perfusion or that of the compound under study was interrupted after 40 minutes.

rat [4] = experiment: Acute toxicity by the intravenous route in the rat; assay type: in vivo
Method: (§1) As for its toxicity, for the determination of which experiments were carried out on two animal species, namely the rat of the OFA strain and the mouse of the OF1 strain, by two routes of administration namely the oral route and the intravenous route, the results obtained were as follows:
(§2) ACUTE TOXICITY OF THE PRODUCT S.C.S. 149 ADMINISTERED BY THE INTRAVENOUS ROUTE IN THE RAT
(§3) Death took place within 48 hours after administration of the product.
(§4) For the intravenous route, the product was solubilized in:
(§5) PEG 400+sterile water (1/3+2/3) in the rat.
(§6) The volume administered was:
(§7) The product was injected at the level of the caudal vein. Before administration of the product, the animals were kept fasting for 16 to 17 hours.

[5] = Acute toxicity by the intravenous route in the rat; assay type: in vivo; conditions: in vivo, iv, LD 50
Method: as §1, §2, §3, §4, §5, §6, §7

[6] = Acute toxicity by the oral route in the mouse; assay type: in vivo; conditions: in vivo, po, LD 50
Method: as §1
(§8) ACUTE TOXICITY OF THE PRODUCT S.C.S. 149 A ADMINISTERED BY THE ORAL ROUTE IN THE MOUSE
(§9) Death took place within 48 hours after treatment
(§10) The product was solubilized, for oral administration, in 2% CMC in water; the volume administered was 25 ml/kg in the mouse and 5 ml/kg in the rat for the dose of 1 g/kg, 10 ml/kg for 2 g/kg and 20 ml/kg for 3.5 and 5 g/kg.
(§11) The product was administered by oesophagal intubation.
as §7

mouse = experiment: Acute toxicity by the oral route in the mouse; assay type: in vivo
Method: as §1, §8, §9, §10, §11, §7

rats = experiment: Six-month toxicological test in rats; assay type: in vivo; conditions: rats of both sexes, daily for six months
Method: (§12) Also, toxicological tests have been carried out on 32 dogs (of both sexes) and 160 rats (of both sexes) for six months and have shown that S.C.S. 149 may be tolerated by the rats at a maximum daily dose of 500 mg/kg and by the dogs at a maximum daily dose of 100 mg/kg.

isolated bronchi = experiment: Tests on isolated bronchi (bronchial level)
dogs = experiment: Six-month toxicological test in dogs; assay type: in vivo; conditions: dogs of both sexes, daily for six months
Method: as §12

rat [7] = experiment: Acute toxicity by the oral route in the rat; assay type: in vivo
Method: as §1
(§13) ACUTE TOXICITY OF THE S.C.S. 149 PRODUCT ADMINISTERED BY THE ORAL ROUTE IN THE RAT
(§14) Death occured within 48 hours after the treatment.
as §10, §11, §7

[8] = Acute toxicity by the oral route in the rat; assay type: in vivo; conditions: in vivo, po, LD 50
Method: as §1, §13, §14, §10, §11, §7

[9] = Acute toxicity by the intravenous route in the mouse; conditions: in vivo; for LD50 at 48 h: 48 hours after treatment; for LD50 at 336 h: 14 days after treatment
Method: as §1
ACUTE TOXICITY OF THE PRODUCT S.C.S. 149 ADMINISTERED BY THE INTRAVENOUS ROUTE IN THE MOUSE
ACUTE TOXICITY OF THE S.C.S. 149 PRODUCT ADMINISTERED BY THE INTRAVENOUS ROUTE IN THE MOUSE
LD 50 14 days after treatment.
as §4
sterile water in the mouse
as §6, §7

beta 1 (isolated atria) = experiment: Tests on isolated atria (cardiac level)

CC(C)NCC(O)COc1cccc2[nH]ccc12 (stereo not drawn) [Pindolol]
intrinsic sympathomimetic action among beta-blocking agents currently used in therapeutics [1]: intrinsic sympathomimetic action is greatest

CCCCNC(=O)N(CC(O)COc1cccc2ccccc12)C(C)C (stereo not drawn) [SCS 128]
cardiac stimulant effect [2]: cardiac stimulant effects; also recorded: cardiac stimulants

CC(C)N(CC(O)COc1cccc2ccccc12)C(N)=O (stereo not drawn) [SCS 131]
cardiac stimulant effect [2]: cardiac stimulant effects; also recorded: cardiac stimulants

CCOC(=O)NC(=N)N(CC(O)COc1ccccc1Cl)C1CCCCC1 (stereo not drawn) [SCS 146]
sympathomimetic activity [3]: sympathomimetic action; also recorded: considerable sympathomimetic activity

CCOC(=O)NC(=N)N(CC(O)COc1ccc(Cl)cc1)C1CCCCC1 (stereo not drawn) [SCS 147]
sympathomimetic activity [3]: sympathomimetic activity still greater than that of the preceding compound | sympathomimetic activity ([3]; listed as 147): sympathomimetic action

CCOC(=O)NC(=N)N(CC(O)COc1ccc(Cl)cc1)C(C)C (stereo not drawn) [SCS 148]
beta-blocking effect [3]: certain betablocking action masked by intrinsic sympathomimetic properties | sympathomimetic activity [3]: intrinsic sympathomimetic properties | sympathomimetic activity ([3]; listed as 148): sympathomimetic action

Cc1ccccc1OCC(O)CN(C(=N)NC(=O)c1ccccc1)C(C)C (stereo not drawn) [SCS 149]
LD 50 (rat [4]; in vivo, iv, 48 h): 40.37 mg/kg | time of death after administration (rat [4]; intravenous): ≤ 48 h | LD50 at 48 h [5]: 35.3 mg/kg | LD50 at 48 h [6]: 560 mg/kg | LD 50 (mouse; in vivo, po, 48 h): 604.81 mg/kg | time of death after treatment (mouse; oral): ≤ 48 h | maximum tolerated daily dose (rats): 500 mg/kg | blocking activity, type at the bronchial level (isolated bronchi): of the competitive type | maximum tolerated daily dose (dogs): 100 mg/kg | beta-blocking properties relative to those of Pindolol [3]: about 60% | beta-blocking effect [3]: undisputable beta-blocking properties | beta-blocking effect ([3]; listed as 149): beta-blocking effects | sympathomimetic activity [3]: intrinsic sympathomimetic effects | LD 50 (rat [7]; in vivo, po, 48 h): 2932.6 mg/kg | time of death after treatment (rat [7]; oral): ≤ 48 h | LD50 at 48 h [8]: 3330 mg/kg | LD50 at 48 h ([9]; female mice): 38.8 mg/kg | LD50 at 336 h ([9]; female mice): 38.1 mg/kg | LD50 at 48 h ([9]; male mice): 37.2 mg/kg | LD50 at 336 h ([9]; male mice): 37.2 mg/kg | beta 1 blocking activity, type at the cardiac level (beta 1 (isolated atria)): beta 1 blocking activity of competitive type

CCOC(=O)NC(=N)N(CC(O)COc1ccccc1C)C(C)C (stereo not drawn) [SCS 150]
beta-blocking properties relative to those of Pindolol [3]: about 70% | beta-blocking effect [3]: adrenergic beta-blocking properties | beta-blocking effect ([3]; listed as 150): beta-blocking effects | sympathomimetic activity [3]: intrinsic sympathomimetic effects

CCOC(=O)NC(=N)N(CC(O)COc1ccccc1C)C1CCCCC1 (stereo not drawn) [SCS 151]
sympathomimetic activity [3]: sympathomimetic characteristics | sympathomimetic activity ([3]; listed as 151): sympathomimetic action
